Test results taken from ChEMBL document CHEMBL5303573, “Mapping human microbiome drug metabolism by gut bacteria and their genes” (Nature, 2019).

Tests used:
[1] = The drug is tested on Bacteroides finegoldii strain: DSM17565 for biotransformation. The drug concentrations were measured before and after a 12-h incubation by liquid-chromatography-coupled mass spectrometry (LC–MS); conditions: 2 µM
[2] = The drug is tested on Bacteroides ovatus strain: ATCC8483 for biotransformation. The drug concentrations were measured before and after a 12-h incubation by liquid-chromatography-coupled mass spectrometry (LC–MS); conditions: 2 µM
[3] = The drug is tested on Bacteroides sp. WH2 strain: WH2 for biotransformation. The drug concentrations were measured before and after a 12-h incubation by liquid-chromatography-coupled mass spectrometry (LC–MS); conditions: bacteroides sp. wh2, 12 h, 2 µM
[4] = bacteroides fragilis, 12 h, 2 µM
Description: The drug is tested on Bacteroides fragilis strain: DS-208 for biotransformation. The drug concentrations were measured before and after a 12-h incubation by liquid-chromatography-coupled mass spectrometry (LC–MS)

[5] = The drug is tested on Bacteroides coprophilus strain: DSM18228 for biotransformation. The drug concentrations were measured before and after a 12-h incubation by liquid-chromatography-coupled mass spectrometry (LC–MS); conditions: 2 µM
[6] = segatella copri, 12 h, 2 µM
Description: The drug is tested on Prevotella copri strain: DSM18205 for biotransformation. The drug concentrations were measured before and after a 12-h incubation by liquid-chromatography-coupled mass spectrometry (LC–MS)

[7] = bifidobacterium adolescentis, 12 h, 2 µM
Description: The drug is tested on Bifidobacterium adolescentis strain: ATCC 15703 for biotransformation. The drug concentrations were measured before and after a 12-h incubation by liquid-chromatography-coupled mass spectrometry (LC–MS)

[8] = The drug is tested on Anaerococcus hydrogenalis strain: DSM7454 for biotransformation. The drug concentrations were measured before and after a 12-h incubation by liquid-chromatography-coupled mass spectrometry (LC–MS); conditions: 2 µM
[9] = The drug is tested on Clostridium sporogenes strain: ATCC15579 for biotransformation. The drug concentrations were measured before and after a 12-h incubation by liquid-chromatography-coupled mass spectrometry (LC–MS); conditions: 2 µM
[10] = bacteroides eggerthii, 12 h, 2 µM
Description: The drug is tested on Bacteroides eggerthii strain: DSM20697 for biotransformation. The drug concentrations were measured before and after a 12-h incubation by liquid-chromatography-coupled mass spectrometry (LC–MS)

[11] = The drug is tested on Clostridium asparagiforme strain: DSM15981 for biotransformation. The drug concentrations were measured before and after a 12-h incubation by liquid-chromatography-coupled mass spectrometry (LC–MS); format: ADME; design: dose 2 uM, timepoint 0 vs 12 hours; conditions: enterocloster asparagiformis, 2 µM
[12] = roseburia intestinalis, 12 h, 2 µM
Description: The drug is tested on Roseburia intestinalis strain: L1-82 for biotransformation. The drug concentrations were measured before and after a 12-h incubation by liquid-chromatography-coupled mass spectrometry (LC–MS)

[13] = The drug is tested on Bacteroides fragilis strain: HMW610 for biotransformation. The drug concentrations were measured before and after a 12-h incubation by liquid-chromatography-coupled mass spectrometry (LC–MS); conditions: 2 µM
[14] = bacteroides thetaiotaomicron, 12 h, 2 µM
Description: The drug is tested on Bacteroides thetaiotaomicron strain: 3731 for biotransformation. The drug concentrations were measured before and after a 12-h incubation by liquid-chromatography-coupled mass spectrometry (LC–MS)

[15] = akkermansia muciniphila, 12 h, 2 µM
Description: The drug is tested on Akkermansia muciniphila strain: ATCC BAA-835 for biotransformation. The drug concentrations were measured before and after a 12-h incubation by liquid-chromatography-coupled mass spectrometry (LC–MS)

[16] = The drug is tested on Eubacterium hallii strain: DSM3353 for biotransformation. The drug concentrations were measured before and after a 12-h incubation by liquid-chromatography-coupled mass spectrometry (LC–MS); conditions: anaerobutyricum hallii, 2 µM
[17] = bacteroides fragilis, 12 h, 2 µM; remark: listed apart in the source
Description: The drug is tested on Bacteroides fragilis strain: NCTC 9343 for biotransformation. The drug concentrations were measured before and after a 12-h incubation by liquid-chromatography-coupled mass spectrometry (LC–MS)

[18] = The drug is tested on Dorea formicigenerans strain: ATCC27755 for biotransformation. The drug concentrations were measured before and after a 12-h incubation by liquid-chromatography-coupled mass spectrometry (LC–MS); conditions: 2 µM
[19] = The drug is tested on Odoribacter splanchnicus strain: fecal isolate for biotransformation. The drug concentrations were measured before and after a 12-h incubation by liquid-chromatography-coupled mass spectrometry (LC–MS); conditions: 2 µM
[20] = The drug is tested on Clostridium sp. strain: fecal isolate for biotransformation. The drug concentrations were measured before and after a 12-h incubation by liquid-chromatography-coupled mass spectrometry (LC–MS); conditions: 2 µM

| Compound | Bacterial Biotransformation [1] | Bacterial Biotransformation [2] | Bacterial Biotransformation [3] | Bacterial Biotransformation [4] | Bacterial Biotransformation [5] | Bacterial Biotransformation [6] | Bacterial Biotransformation [7] | Bacterial Biotransformation [8] | Bacterial Biotransformation [9] | Bacterial Biotransformation [10] | Bacterial Biotransformation [11] | Bacterial Biotransformation [12] | Bacterial Biotransformation [13] | Bacterial Biotransformation [14] | Bacterial Biotransformation [15] | Bacterial Biotransformation [16] | Bacterial Biotransformation [17] | Bacterial Biotransformation [18] | Bacterial Biotransformation [19] | Bacterial Biotransformation [20] |
| --- | --- | --- | --- | --- | --- | --- | --- | --- | --- | --- | --- | --- | --- | --- | --- | --- | --- | --- | --- | --- |
| CN(C)CCOC(C)(c1ccccc1)c1ccccn1.O=C(O)CCC(=O)O (stereo unspecified) [DOXYLAMINE SUCCINATE] | Compound NOT metabolized | Compound NOT metabolized | Compound NOT metabolized | Compound NOT metabolized | Compound NOT metabolized | Compound NOT metabolized | Compound NOT metabolized | Compound NOT metabolized | Compound NOT metabolized | Compound NOT metabolized | Compound NOT metabolized | Compound NOT metabolized | Compound NOT metabolized | Compound NOT metabolized | Compound NOT metabolized | Compound NOT metabolized | Compound NOT metabolized | Compound NOT metabolized | Compound NOT metabolized |  |
| CCOC(=O)[C@H](CCc1ccccc1)N[C@@H](C)C(=O)N1CCC[C@H]1C(=O)O.O=C(O)/C=C\C(=O)O [ENALAPRIL MALEATE] | Compound NOT metabolized | Compound NOT metabolized | Compound NOT metabolized | Compound NOT metabolized |  | Compound NOT metabolized | Compound NOT metabolized | Compound NOT metabolized | Compound NOT metabolized | Compound NOT metabolized | Compound NOT metabolized | Compound NOT metabolized |  | Compound NOT metabolized | Compound NOT metabolized | Compound NOT metabolized | Compound NOT metabolized | Compound NOT metabolized | Compound NOT metabolized |  |
| COCCCC/C(=N\OCCN)c1ccc(C(F)(F)F)cc1.O=C(O)/C=C\C(=O)O [FLUVOXAMINE MALEATE] | Compound NOT metabolized | Compound metabolized | Compound NOT metabolized |  | Compound metabolized |  | Compound NOT metabolized | Compound NOT metabolized |  | Compound NOT metabolized | Compound NOT metabolized | Compound NOT metabolized |  | Compound metabolized |  | Compound NOT metabolized |  | Compound NOT metabolized |  | Compound metabolized |
| COc1ccccc1OCC(O)COC(N)=O (stereo unspecified) [METHOCARBAMOL] | Compound NOT metabolized | Compound NOT metabolized | Compound NOT metabolized | Compound NOT metabolized | Compound NOT metabolized | Compound NOT metabolized | Compound NOT metabolized |  | Compound NOT metabolized | Compound NOT metabolized | Compound NOT metabolized | Compound NOT metabolized | Compound NOT metabolized | Compound NOT metabolized | Compound NOT metabolized | Compound NOT metabolized | Compound NOT metabolized | Compound NOT metabolized | Compound NOT metabolized |  |
| CN(C(=O)CN(CCO)CC(=O)N(C)C(C)(C)Cc1ccccc1)C(C)(C)Cc1ccccc1 [OXETHAZAINE] | Compound NOT metabolized | Compound NOT metabolized | Compound NOT metabolized |  | Compound NOT metabolized |  | Compound NOT metabolized | Compound NOT metabolized | Compound NOT metabolized | Compound NOT metabolized | Compound NOT metabolized | Compound NOT metabolized | Compound NOT metabolized | Compound NOT metabolized | Compound NOT metabolized | Compound NOT metabolized |  | Compound NOT metabolized | Compound NOT metabolized |  |

Now from value to compound, other results behind:

| Bacterial Biotransformation [1] | Bacterial Biotransformation [2] | Bacterial Biotransformation [3] | Bacterial Biotransformation [4] | Bacterial Biotransformation [5] | Bacterial Biotransformation [6] | Bacterial Biotransformation [7] | Bacterial Biotransformation [8] | Bacterial Biotransformation [9] | Bacterial Biotransformation [10] | Bacterial Biotransformation [11] | Bacterial Biotransformation [12] | Bacterial Biotransformation [13] | Bacterial Biotransformation [14] | Bacterial Biotransformation [15] | Bacterial Biotransformation [16] | Bacterial Biotransformation [17] | Bacterial Biotransformation [18] | Bacterial Biotransformation [19] | Compound | Bacterial Biotransformation [20] |
| --- | --- | --- | --- | --- | --- | --- | --- | --- | --- | --- | --- | --- | --- | --- | --- | --- | --- | --- | --- | --- |
| Compound NOT metabolized | Compound NOT metabolized | Compound NOT metabolized | Compound NOT metabolized | Compound NOT metabolized | Compound NOT metabolized | Compound NOT metabolized | Compound NOT metabolized | Compound NOT metabolized | Compound NOT metabolized | Compound NOT metabolized | Compound NOT metabolized | Compound NOT metabolized | Compound NOT metabolized | Compound NOT metabolized | Compound NOT metabolized | Compound NOT metabolized | Compound NOT metabolized |  | O=C(Nc1ccccc1)OCC(CN1CCCCC1)OC(=O)Nc1ccccc1 (stereo unspecified) [DIPERODON] |  |
| Compound NOT metabolized | Compound NOT metabolized | Compound NOT metabolized | Compound NOT metabolized | Compound NOT metabolized |  | Compound NOT metabolized | Compound NOT metabolized | Compound NOT metabolized | Compound NOT metabolized | Compound NOT metabolized |  | Compound NOT metabolized | Compound NOT metabolized | Compound NOT metabolized | Compound NOT metabolized | Compound NOT metabolized | Compound NOT metabolized | Compound NOT metabolized | CN1CCN2c3ccccc3Cc3ccccc3C2C1 (stereo unspecified) [MIANSERIN] |  |
| Compound NOT metabolized | Compound NOT metabolized | Compound NOT metabolized | Compound NOT metabolized |  | Compound metabolized | Compound NOT metabolized | Compound NOT metabolized | Compound NOT metabolized | Compound NOT metabolized | Compound NOT metabolized | Compound NOT metabolized |  | Compound NOT metabolized | Compound NOT metabolized | Compound NOT metabolized | Compound metabolized | Compound NOT metabolized | Compound metabolized | CCN(CC)CCOC(=O)C(Cc1cccc2ccccc12)CC1CCCO1.O=C(O)C(=O)O (stereo unspecified) [NAFRONYL OXALATE] |  |
| Compound NOT metabolized | Compound NOT metabolized | Compound NOT metabolized | Compound NOT metabolized | Compound NOT metabolized | Compound NOT metabolized |  | Compound NOT metabolized | Compound NOT metabolized | Compound NOT metabolized | Compound NOT metabolized | Compound NOT metabolized | Compound NOT metabolized | Compound NOT metabolized |  | Compound NOT metabolized |  | Compound NOT metabolized | Compound NOT metabolized | Cc1ccccc1C(OCCN(C)C)c1ccccc1.O=C(O)CC(O)(CC(=O)O)C(=O)O (stereo unspecified) [ORPHENADRINE CITRATE] |  |
